For one data set, the system named is SCC12F cells. Briefly: FACS cell cycle analysis of SCC12F cells. The note with it: for cells in the S phase / S-phase arrest: 48 hours (control 26%). In kind it is cell-based, human. The procedure: However, when increasing concentrations of the phosphorothioate 11mer-1 were also added to these cultures, fewer cells became arrested (FIGS. 21A–21G).
Exposure of keratinocytes to UVB irradiation affects the expression of genes involved in cell cycle arrest, DNA repair and cytokine production. Single-stranded oligonucleotides sharing sequence homology with the telomere 3′ overhang, when introduced into cells, mimic these UV effects. To identify other genes that may be similarly modulated, cells of keratinocyte origin (SCC12F; a human epidermal squamous cell carcinoma line provided by Dr. James Rheinwald of Harvard University) were exposed to solar simulated irradiation (SSR) (20 mJ/cm^2, measured at 285±5 nm), to an 11-base oligonucleotide (pGTTAGGGTTAG; SEQ ID NO:5) homologous to the telomere overhang (T-oligo), or to a complementary sequence as control [pCTAACCCTAAC; (SEQ ID NO:9) control oligonucleotide]. […] These are mitochondrial-transcribed genes whose encoded proteins participate in cellular respiration.
In order to determine whether these oligonucleotides similarly affect other human cell types and to investigate the role of p53, we treated a squamous cell carcinoma line (SCC12F) (Rheinwald, J. G., et al., 1983, Human carcinogenesis. pp. 86–96. Academic Press (New York)) that over-expresses a presumptively mutated p53 (Eller, M. S. and B. A. Gilchrest. 2000, Pigment Cell Res. 13: 94–97) and a p53-null osteosarcoma cell line (Saos-2) (Wang, L. H., et al., 1998, Anticancer Res 18: 321–325) with either diluent alone, 11mer-1, 11mer-2 or 11mer-3. Cultures were analyzed by FACS after 48 hours (FIGS. 33A–33H). […] Although the percentage of cells in the S-phase in 11mer-1-treated SCC12F and Saos-2 cells was virtually identical (53±6% and 52±1%, respectively), the G0/G1 and G2/M content of the two cell types were somewhat different. This may reflect differential uptake of the oligonucleotide leading to dose-dependent differences, and/or different pathways acting in these cells to control the cell cycle. No apoptotic response to the oligonucleotides was detected in either cell type within 72 hours.

The test system of a further data set is S91 cells. Briefly: Cellular uptake of FAM-labeled oligonucleotides in S91 cells. The data set is classed as in vitro ADME, mouse. The note with it: 4 hours. Here is the method:
Fluorescein phosphoramidite (FAM) labeled oligonucleotides were added to cultures of S91 cells for 4 hours and the cells were then prepared for confocal microscopy. Nuclei, identified by staining with propidium iodide, appeared red and FAM-labeled oligonucleotides appeared green. Co-localization of red and green signals was assigned a yellow color by the computer. […] There was no change in the profile of oligonucleotide uptake after 6 and 24 hours.

The test system of a further data set is caspase-3. As to the kind of experiment: Caspase-3 activity in Jurkat cells. In kind it is cell-based, human. The conditions noted are these: 40 μM. Here is the method: Duplicate cultures of Jurkat cells were cultured and treated with oligonucleotides as described above. At 48, 72 and 96 hours of treatment, cells were collected by centrifugation, washed and then the pellet lysed by repeated cycles of freeze-thawing. The lysate was then clarified by centrifugation and the supernatant used for protein analysis and Caspase-3 activity assay using the components and instructions of the Colorimetric CaspACE Assay System from Promega (Madison, Wis.). The assay uses the substrate Ac-DEVD-pNA and calorimetrically measures release of free pNA. Caspase activity is expressed as pmol of pNA produced/hour/μg protein.
Apoptosis was also detected by the DNA end-labeling TUNEL assay. Jurkat cells were treated with 40 μM oligonucleotides for 72 hours. Cells were then collected and the TUNEL assay was carried out. […] The activation of caspase-3, another marker of apoptosis, was also examined. Duplicate cultures of Jurkat cells were cultured and treated with oligonucleotides as described above for 48, 72 and 96 hours and caspase-3 activity was measured. The activity of caspase-3 was 50% higher after 48 hours of treatment with the telomere overhang homolog, compared to controls, and 3–4 fold higher in these cells at 72 and 96 hours (FIG. 27). Thus, the oligonucleotide homologous to the telomere 3′ overhang specifically induces an S phase arrest and apoptosis in these cells.

The subject of data set [1] is p53. Briefly: p53 immunoperoxidase staining in fibroblasts. The data set is classed as cell-based, human. The conditions noted are these: normal neonatal fibroblasts; 100 μM; within 24 hours. The procedure:
The effect of pTpT on the level and intracellular distribution of p53 in normal neonatal fibroblasts was examined by immunoperoxidase staining using a p53-specific monoclonal antibody (mAb 421, Oncogene, Cambridge, Mass.). Preconfluent cultures were treated with either 100 μM pTpT or diluent for 24 hours before cell staining. Cells were first fixed for one minute in Histochoice fixative (Amresco, Solon, Ohio) followed by a five-minute rinse in PBS. p53 was detected using the Vectastain Elite ABC kit (Vector Laboratories, Burlingame, Calif.) and the p53-specific monoclonal antibody mAb 421.

Another data set relates to contact hypersensitivity. As to the kind of experiment: Contact hypersensitivity to DNFB (ear swelling). In kind it is in vivo, C57B16 mice. The conditions noted are these: 30 μl of 100 μM BID×5d topical to abdominal skin before sensitization. Here is the method: C57B16 mice were subjected to the following treatment prior to sensitization with the allergen DNFB, by topical administration to abdominal skin; no pretreatment, UVB irradiation (200 J/m^2/dx4d), pTpT, pApA, or vehicle alone (30 μl of 100 μM BID×5d).

Data set [2] deals with p53 (Homo sapiens, UniProt P04637). As to the kind of experiment: p53 assay using hGH reporter plasmid in p53-transfected H1299 cells. In kind it is cell-based. On the set-up: expressed in transfected cells; host or cells: H1299 lung carcinoma cells (p53-null); vector from Dr. Bert Vogelstein. The conditions noted are these: 100 μM; 24 hours. Here is the method: H1299 cells were similarly transfected with p53 expression vector or control vector. Two days after the transfection these cells were cotransfected with pPG-GH and PSV-β-galactosidase control vector, and treated with 100 μM pTpT. Twenty-four hours later, 250 μl of the medium and the cell lysate were harvested and processed as described above.
Sequence of p53 (Homo sapiens, UniProt P04637) (P04637 whole entry): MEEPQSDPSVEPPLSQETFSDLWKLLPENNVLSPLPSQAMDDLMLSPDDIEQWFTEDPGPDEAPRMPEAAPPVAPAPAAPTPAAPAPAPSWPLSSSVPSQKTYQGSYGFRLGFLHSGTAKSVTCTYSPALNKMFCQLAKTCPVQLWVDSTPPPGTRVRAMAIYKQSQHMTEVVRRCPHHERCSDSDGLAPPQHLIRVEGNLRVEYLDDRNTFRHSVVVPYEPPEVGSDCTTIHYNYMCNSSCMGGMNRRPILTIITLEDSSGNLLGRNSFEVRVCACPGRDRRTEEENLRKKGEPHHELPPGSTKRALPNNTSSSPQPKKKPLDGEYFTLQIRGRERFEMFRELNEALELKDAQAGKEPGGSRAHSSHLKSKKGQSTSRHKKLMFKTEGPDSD

Oligonucleotides are written 5' to 3', each unit as a sugar letter and its base; * is a phosphorothioate linkage, no mark a phosphodiester; rarer units and linkages stand in square brackets, end groups in braces. Plain capitals give the bases only. d = 2'-deoxy (DNA); {P} = phosphate

For “11mer-1-S: phosphorothioate 11mer-1 (dG*dT*dT*dA*dG*dG*dG*dT*dT*dA*dG; further chemistry not fully specified)”, in the data set with SCC12F cells, the “cells in the S phase / S-phase arrest” value is on record as “did not induce the S-phase arrest”.

Take “pGAGTATGAG (DNA, 5' {P}, backbone not given here) [SEQ ID NO: 1]”: in the data set on S91 cells, the “cellular uptake and localization (confocal microscopy, FACS)” value is “intense staining that strongly localized to the nucleus”.

“pGTTAGGGTTAG (DNA {P}-dGdTdTdAdGdGdGdTdTdAdG) [SEQ ID NO: 5]”: in the data set with SCC12F cells (40 μM, 48 hours), the “cells in the S-phase” value worked out at 53±6%. In addition, in the data set with SCC12F cells, the “cells in the S phase / S-phase arrest” value was “Forty-three precent”. Further, the “cells arrested in the S-phase” value in the data set on SCC12F cells (Example 27 (control cells <23%)) is > 43%. The “caspase-3 activity higher compared to controls” value in the data set on caspase-3 (72 and 96 hours) is 3–4 fold; with caspase-3 (48 hours) it was 50%.

Take thymidine dinucleotide [pTpT]: the “intranuclear p53” value in the data set with p53 [1] is recorded as “an increase in intranuclear p53”. Moreover, in the data set on contact hypersensitivity, the “ear swelling responses to DNFB challenge” value came out at 0.9±0.3. Besides, the “cellular uptake and localization (confocal microscopy, FACS)” value with S91 cells is reported as “strong green fluorescence in the cytoplasm, but only a small amount of nuclear localization”. Also, at p53 [2], the “increase in hGH secretion compared to diluent-treated cells” value is 40%.

For the origin of these results see patent publication US7033829B2, “Method to inhibit cell growth using oligonucleotides” (Trustees of Boston University, priority 2000, dated 2006).
